Measured values published in ChEMBL document CHEMBL3352162, “Synthesis of bi-/tricyclic azasugars fused thiazinan-4-one and their HIV-RT inhibitory activity” (Bioorg Med Chem Lett, 2014).

target: Human immunodeficiency virus type 1 reverse transcriptase (Human immunodeficiency virus 1, UniProt Q72547); experiment: Inhibition of HIV-1 reverse transcriptase after 1 hr by ELISA plate reader analysis

| Compound | IC50 |
| --- | --- |
| O=C1c2ccccc2S[C@@H]2[C@@H](O)[C@@H](O)[C@H](O)[C@H](CO)N12 | 1.32 µM |
| O=C1c2ccccc2S[C@H]2[C@@H](O)[C@@H](O)[C@H](O)CN12 | 1.58 µM |
| O=C1CCS[C@H]2[C@@H](O)[C@@H](O)[C@H](O)[C@H](CO)N12 | 12.9 µM |
| O=C1c2ccccc2S[C@@H]2[C@@H](O)[C@@H](O)[C@H](O)[C@@H](CO)N12 | 19.7 µM |
| O=C1CCS[C@@H]2[C@@H](O)[C@@H](O)[C@H](O)[C@H](CO)N12 | 6.02 µM |
| O=C1c2ccccc2S[C@@H]2[C@@H](O)[C@@H](O)[C@H](O)CN12 | 3.83 µM |
| O=C1c2ccccc2S[C@H]2[C@@H](O)[C@@H](O)[C@H](O)[C@H](CO)N12 | 0.49 µM |
| O=C1CCS[C@@H]2[C@@H](O)[C@@H](O)[C@H](O)[C@@H](CO)N12 | 1.41 µM |
| O=C1c2cccnc2S[C@@H]2[C@@H](O)[C@@H](O)[C@H](O)[C@H](CO)N12 | 26.8 µM |
| O=C1c2cccnc2S[C@@H]2[C@@H](O)[C@@H](O)[C@H](O)[C@@H](CO)N12 | 53.8 µM |
| O=C1c2cccnc2S[C@H]2[C@@H](O)[C@@H](O)[C@H](O)[C@H](CO)N12 | 31.4 µM |
